Source: US4035486A, “Medicament” (Centre d'Etudes Experimentales et Clinques de Physio …, priority 1974, dated 1977)

Assays:
[1] = test system: sections of the cerebral cortex of a rat stimulated by KCl; experiment: Action in vitro on consumption of oxygen, accumulation of lactic acid and consumption of glucose in rat cerebral cortex sections stimulated by KCl (Warburg technique, enzymatic determination); format: cell-based; details: for Accumulation of lactic acid / Consumption of glucose / Consumption of oxygen: rat cerebral cortex sections stimulated by KCl, 1 hour at 37°, ACh 2.7.10^-10 M, insulin 66.10^-4 U/I
From the text: 1. The investigation, on sections of a rat's brain which have been stimulated by KCl, of the variations in the consumption of oxygen, the production of lactic acid and the consumption of glucose, by WARBURG's conventional technique, after which these sections are subjected to the action of guanosine, ACh or insulin or guanosine in association with ACh or insulin. I. Action in vitro of guanosine, alone or in association with acetylcholine or insulin, on the consumption of oxygen, the accumulation of lactic acid and the consumption of glucose in sections of the cerebral cortex of a rat which have been stimulated by KCl. The animals which are used are male Wistar Vag rats with an average weight of 225/250 grammes, and they have been subjected to standard laboratory regime. The sections of tissue, which weigh between 15 and 20 mg, were taken from the cerebral cortex of the rat and allowed to incubate for 1 hour at 37° after being placed in a flask containing the Krebs-Ringer phosphate buffer having a KCl concentration of 10 percent. The substrate comprises 15 μ moles of glucose. The guanosine, […], is added to the flask simultaneously with the glucose and the buffer, whereas the acetylcholine 2.7.10^^-10 M and the insulin (Endopancrine) 66.10^-^4 μ/liter are placed in the lateral paunch and put into contact with the section of tissue at a time 0. The total volume of the mixture is 3 mls. The consumption of oxygen is measured according to Warburg's conventional method after a 1-hour period of incubation at 37°. It is expressed in μ moles of oxygen per hour and per gramme of tissue. The lactic acid and glucose are determined in the deproteinised incubation medium by an enzymatic method. The results are expressed in μ moles/h/g of tissue.

[2] = test system: glycogen of the mouse brain; experiment: Cerebral glycogen in a mouse after injection of guanosine, insulin or both; format: in vivo; details: for glycogen of the mouse brain: 30 minutes before killing; for level of cerebral glycogen compared with the controls (in words): mouse, guanosine 100 mg/kg or 200 mg/kg, insulin 0.5 I.U./20 g, or insulin with guanosine 200 mg/kg
Description: 2. The investigation of the content of glycogen in the brain of a mouse under the action of quanosine or insulin or these two agents in association. The animals which are used are male mice with an average weight of 20-25 g. Five groups of animals were studied which had received respectively: 1st group: a isotonic salt solution by intraperitoneal injection. 2nd group: a dose of 100 mg/kg of guanosine by intraperitoneal injection. 3rd group: a dose of 200 mg/kg of guanosine by intraperitoneal injection. 4th group: a dose of 0.5 μI/20 g per mouse of insulin by subcutaneous injection. For these four groups the injection was made 30 minutes before the animals were killed. 5th group: an intraperitoneal injection of guanosine at a dose of 200 mg/kg 30 minutes before a sub-cutaneous injection of insulin at a dose of 0.5 μI/20 g per mouse. The animal is killed 30 minutes after the second injection by being totally immersed in liquid nitrogen. The brains are removed whilst they are still deep-frozen. The isolated glycogen is hydrolyzed by the enzyme amylo-α-1,4 -α-1,6 glucosidase which releases the glucose by hydrolysis of the α-(1 → 6) and α-(→ 4) bonds. The glucose is then converted, in a single stage, to 6-phosphogluconate by the enzymes : hexokinase and glucose-6-phosphate dehydrogenase. The formation of the nicotinamide adenine dinucleotide phosphate is then measured florometrically (NAHORSKI and ROGERS, Analyt. Biochem. 1972, 49, 492-497).

glycemia = experiment: Action of guanosine upon glycemia in the rabbit after intravenous injection; format: in vivo; details: insulin 0.5 I.U. per kg alone or with guanosine 100 mg per kg, followed to 240 min
Description: 3. The study of the variations in glycemia in a rabbit after an injection of either insulin or insulin in association with guanosine.
The animals which are used are male rabbits with a weight of 2.200 kg to 2.500 kg.
Four groups of animals were studied which had received by intravenous injection, respectively, in a volume of 10 ml:
1st group: an isotonic solution of sodium chloride.
2nd group: guanosine at the rate of 100 mg per kg of rabbit.
3rd group: insulin at the rate of 0.5 I.U. per kg of rabbit.
4th group: guanosine at the rate of 100 mg per kg of rabbit and insulin at the rate of 0.5 I.U. per kg of rabbit.
A catheter is inserted into the femoral artery, its distal end being joined to the skin in the caudal region, such that the blood may be removed without harming the rabbit.
The drugs were injected via a vein in the ear. The guanosine was dissolved in an isotonic sodium chloride solution to which 1.5% NaOH was added until the guanosine has been dissolved. The pH of the final solution was 9.
After the inspection the rabbits were given 30 minutes rest.
Arterial blood was removed on six occasions at the times t = 0 min; t = 15 min; t = 30 min; t = 60 min; t = 120 min; t = 240 min.
The glycemia values were determined by the enzymatic method of BOEHRINGER.

| Molecule | increase in the consumption of oxygen ([1]; acetylcholine 2.7.10^-10 M, alone or with guanosine, rat cerebral cortex sections) [%] | Accumulation of lactic acid ([1]; guanosine 1.66.10^-4 M) [µmol/h/g] | Consumption of glucose ([1]; guanosine 1.66.10^-4 M) [µmol/h/g] | Consumption of oxygen ([1]; guanosine 1.66.10^-4 M) [µmol/h/g] | glycogen of the mouse brain ([2]; guanosine 100 mg/kg intraperitoneal) | glycogen of the mouse brain ([2]; guanosine 200 mg/kg intraperitoneal) | level of cerebral glycogen compared with the controls (in words) [2] | effect upon the accumulation of lactic acid (in words) ([1]; rat cerebral cortex sections, guanosine 1.66.10^-4 M) | effect upon the consumption of glucose (in words) ([1]; rat cerebral cortex sections, guanosine 1.66.10^-4 M, acetylcholine 2.7.10^-10 M) | effect upon the consumption of oxygen (in words) ([1]; rat cerebral cortex sections, guanosine 1.66.10^-4 M, acetylcholine 2.7.10^-10 M, insulin 66.10^-4 μ/liter) | return of the glycemia to its original level (in words) (glycemia) | glycogen of the mouse brain ([2]; insulin 0.5 I.U./20 g mouse subcutaneous) | increase in the consumption of glucose ([1]; insulin 66.10^-4 μ/liter, alone or with guanosine, rat cerebral cortex sections) [%] |
| --- | --- | --- | --- | --- | --- | --- | --- | --- | --- | --- | --- | --- | --- |
| CC(=O)OCC[N+](C)(C)C [ACh, acetylcholine, reference compound] | 25 | 98.8 ± 3.7 | 146 ± 13.9 | 134 ± 7.2 |  |  |  |  |  |  |  |  |  |
| Nc1nc2c(ncn2[C@@H]2O[C@H](CO)[C@@H](O)[C@H]2O)c(=O)[nH]1 [Guanosine, guanosine] |  | 88.2 ± 5.4 | 99.3 ± 9.1 | 93 ± 6 | 151 ± 7 μ g of glucose equivalents per | 159 ± 8 μ g of glucose equivalents per | do not show any significant differences | has no effect | has no effect | has no effect |  |  |  |
| insulin |  | 84.6 ± 5 | 168 ± 17 | 91.6 ± 5.3 |  |  | very much higher than that of the controls |  |  |  | quickly returns to its original level | 182 ± 10 μ g of glucose equivalents per | 50 |
